The supplement of paper PMC11061612

Experiments:
[1] = tested on: EW-24 (Ewing's Sarcoma); assay: Bliss excess, mean over the matrix (fraction); higher = more synergy
Method in brief: (§1)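 Bliss excess equals the observed combination effect minus the expected value EA + EB − EA·EB, where EA and EB are the effects of each agent alone. Combination Emax is the second-highest inhibition within the matrix. Inhibition was scaled from CellTiter-Glo 2.0 luminescence, with 0 set by vehicle wells and 1 by blank wells, after 72 hours of two-drug dosing of cells plated in 1536-well plates.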

[2] = tested on: TK10 (Kidney Carcinoma); assay: combination Emax (second highest fraction inhibited in the dose matrix, 72 h); higher = more inhibition; extreme values may be limits of the assay
Method in brief: as §1

[3] = tested on: KYSE-450 (Esophageal Squamous Cell Carcinoma); assay: as above
Method in brief: as §1

[4] = tested on: EFM-19 (Breast Carcinoma); assay: as above
Method in brief: as §1

[5] = tested on: ACHN (Kidney Carcinoma); assay: as above
Method in brief: as §1

[6] = tested on: UACC-62 (Melanoma); assay: as above
Method in brief: as §1

[7] = tested on: KARPAS-299 (T-Cell Non-Hodgkin's Lymphoma); assay: as above
Method in brief: as §1

[8] = tested on: RF-48 (B-Cell Non-Hodgkin's Lymphoma); assay: as above
Method in brief: as §1

[9] = tested on: BT-549 (Breast Carcinoma); assay: as above
Method in brief: as §1

[10] = tested on: Ca9-22 (Head and Neck Carcinoma); assay: as above
Method in brief: as §1

[11] = tested on: AMO-1 (Plasma Cell Myeloma); assay: as above
Method in brief: as §1

| SMILES | Bliss excess [1] | combination Emax [2] | combination Emax [3] | combination Emax [4] | combination Emax [5] | combination Emax [6] | combination Emax [7] | combination Emax [8] | combination Emax [9] | combination Emax [10] | combination Emax [11] |
| --- | --- | --- | --- | --- | --- | --- | --- | --- | --- | --- | --- |
| O=C(c1cc(Cc2n[nH]c(=O)c3ccccc23)ccc1F)N1CCN(C(=O)C2CC2)CC1 [Olaparib] + Cc1c2c(nn1C)CSCc1cc(n(C)n1)CSc1cc(c3ccccc3c1)OCCCc1c(C(=O)O)n(C)c3c-2c(Cl)ccc13 [AZD5991] (first compound max 10 µM, 7x7, partner max 1 µM) | -0.0215 | 0.0994 | 0.0895 | 0.272 | 0.177 | 0.568 | 0.931 | 0.365 | 0.217 | 0.212 | 1 |
| O=C(c1cc(Cc2n[nH]c(=O)c3ccccc23)ccc1F)N1CCN(C(=O)C2CC2)CC1 [Olaparib] + CN(CC[C@H](CSC1=CC=CC=C1)NC2=C(C=C(C=C2)S(=O)(=O)NC(=O)C3=CC=C(C=C3)N4CCC(CC4)[C@H](C5=CC=CC=C5C6=CC=C(C=C6)Cl)O)S(=O)(=O)C(F)(F)F)CCO [AZD4320] (first compound max 10 µM, 7x7, partner max 1 µM) | 0.0097 | 0.128 | 0.0781 | 0.428 | 0.154 | 0.198 | 0.432 | 0.926 | 0.217 | 0.349 | 0.424 |
| Cc1c2c(nn1C)CSCc1cc(n(C)n1)CSc1cc(c3ccccc3c1)OCCCc1c(C(=O)O)n(C)c3c-2c(Cl)ccc13 [AZD5991] + CS(=O)(=O)CCNCc1ccc(-c2ccc3ncnc(Nc4ccc(OCc5cccc(F)c5)c(Cl)c4)c3c2)o1 [Lapatinib] (first compound max 1 µM, 7x7, partner max 10 µM) | – | 0.56 | 0.541 | 0.364 | 0.481 | 0.576 | 0.952 | 0.244 | 0.412 | 0.933 | 1 |
| CC1(C)CCC(CN2CCN(c3ccc(C(=O)NS(=O)(=O)c4ccc(NCC5CCOCC5)c([N+](=O)[O-])c4)c(Oc4cnc5[nH]ccc5c4)c3)CC2)=C(c2ccc(Cl)cc2)C1 [Venetoclax] + CS(=O)(=O)CCNCc1ccc(-c2ccc3ncnc(Nc4ccc(OCc5cccc(F)c5)c(Cl)c4)c3c2)o1 [Lapatinib] (first compound max 1 µM, 7x7, partner max 10 µM) | -0.0183 | 0.516 | 0.34 | 0.207 | 0.52 | 0.256 | 0.337 | 0.34 | 0.249 | 0.777 | 0.882 |
| C[C@@H](Nc1cc(F)cc(F)c1)c1cc(C(=O)N(C)C)cc2c(=O)cc(N3CCOCC3)oc12 [AZD8186] + CC(=O)c1c(C)c2cnc(Nc3ccc(N4CCNCC4)cn3)nc2n(C2CCCC2)c1=O [Palbociclib] (first compound max 10 µM, 7x7, partner max 10 µM) | 0.0598 | 0.556 | 0.378 | 0.449 | 0.661 | 0.51 | 0.345 | 0.4 | 0.392 | 0.368 | 0.673 |
| C[C@@H]1COCCN1c1cc(C2([S@](C)(=N)=O)CC2)nc(-c2ccnc3[nH]ccc23)n1 [AZD6738] + Nc1ccn([C@@H]2O[C@H](CO)[C@@H](O)C2(F)F)c(=O)n1 [Gemcitabine] (first compound max 10 µM, 7x7, partner max 0.3 µM) | 0.0086 | – | 0.862 | 0.795 | 0.875 | 0.757 | 0.997 | 0.77 | 0.797 | 0.923 | 0.967 |
| C[C@@H](Nc1cc(F)cc(F)c1)c1cc(C(=O)N(C)C)cc2c(=O)cc(N3CCOCC3)oc12 [AZD8186] + C1CN(CCC1(C(=O)N[C@@H](CCO)C2=CC=C(C=C2)Cl)N)C3=NC=NC4=C3C=CN4 [AZD5363] (first compound max 10 µM, 7x7, partner max 10 µM) | -0.0033 | 0.454 | 0.31 | 0.432 | 0.414 | 0.514 | 0.263 | 0.432 | 0.343 | 0.296 | 0.506 |
| O=C(c1cc(Cc2n[nH]c(=O)c3ccccc23)ccc1F)N1CCN(C(=O)C2CC2)CC1 [Olaparib] + COc1nnc2ccc(N3CCC(c4ccc(OCCN5CCN(C)C(=O)[C@H]5C)cc4)CC3)nn12 [AZD5153] (first compound max 10 µM, 7x7, partner max 1 µM) | -0.0469 | 0.482 | 0.235 | 0.367 | 0.539 | 0.491 | 0.774 | 0.354 | 0.462 | 0.625 | 0.882 |
| Cc1c2c(nn1C)CSCc1cc(n(C)n1)CSc1cc(c3ccccc3c1)OCCCc1c(C(=O)O)n(C)c3c-2c(Cl)ccc13 [AZD5991] + Nc1ccn([C@@H]2O[C@H](CO)[C@@H](O)C2(F)F)c(=O)n1 [Gemcitabine] (first compound max 1 µM, 7x7, partner max 0.3 µM) | 0.0048 | 0.346 | 0.459 | 0.573 | 0.744 | 0.753 | 0.979 | 0.679 | 0.395 | 0.68 | 1 |
| CS(=O)(=O)CCNCc1ccc(-c2ccc3ncnc(Nc4ccc(OCc5cccc(F)c5)c(Cl)c4)c3c2)o1 [Lapatinib] + Cn1cnc2c(F)c(Nc3ccc(Br)cc3Cl)c(C(=O)NOCCO)cc21 [Selumetinib] (first compound max 10 µM, 7x7, partner max 10 µM) | -0.0473 | 0.605 | 0.41 | 0.289 | 0.577 | 0.831 | 0.446 | 0.275 | 0.32 | 0.845 | 0.894 |
| C=CCn1c(=O)c2cnc(Nc3ccc(N4CCN(C)CC4)cc3)nc2n1-c1cccc(C(C)(C)O)n1 [AZD1775] + Nc1ccn([C@@H]2O[C@H](CO)[C@@H](O)C2(F)F)c(=O)n1 [Gemcitabine] (first compound max 1 µM, partner max 0.3 µM) | -0.0627 | 0.456 | 0.875 | 0.614 | 0.853 | 0.73 | 0.976 | 0.727 | 0.827 | 0.834 | 0.959 |
| O=C(c1cc(Cc2n[nH]c(=O)c3ccccc23)ccc1F)N1CCN(C(=O)C2CC2)CC1 [Olaparib] + CC1(C)CCC(CN2CCN(c3ccc(C(=O)NS(=O)(=O)c4ccc(NCC5CCOCC5)c([N+](=O)[O-])c4)c(Oc4cnc5[nH]ccc5c4)c3)CC2)=C(c2ccc(Cl)cc2)C1 [Venetoclax] (first compound max 10 µM, 7x7, partner max 1 µM) | -0.0087 | 0.0731 | 0.0027 | 0.194 | 0.143 | 0.213 | 0.306 | 0.606 | 0.18 | 0.229 | 0.333 |
| Cc1nc(-c2cn3c(n2)-c2ccc(-c4cnn(C(C)(C)C(N)=O)c4)cc2OCC3)n(C(C)C)n1 [Taselisib] + O=C(Nc1ccc2[nH]nc(-c3ccncc3)c2c1)[C@@H]1CCN(CC(=O)N2CCN(c3ccc(-c4ncccn4)cc3)CC2)C1 [SCH772984] (first compound max 10 µM, 7x7, partner max 5 µM) | 0.0424 | 0.773 | 0.725 | 0.693 | 0.692 | 0.955 | 0.413 | 0.36 | 0.501 | 0.938 | 0.761 |
| C[C@@H]1COCCN1c1cc(C2([S@](C)(=N)=O)CC2)nc(-c2ccnc3[nH]ccc23)n1 [AZD6738] + C1CC(C1)(C(=O)[O-])C(=O)[O-].N.N.[Pt+2] [Carboplatin] (first compound max 10 µM, 7x7, partner max 10 µM) | -0.0462 | 0.634 | 0.312 | 0.211 | 0.819 | 0.246 | 0.926 | 0.329 | 0.51 | 0.895 | 0.88 |
| C[C@@H](Oc1cc(-c2cnn(C3CCNCC3)c2)cnc1N)c1c(Cl)ccc(F)c1Cl [Crizotinib] + CC1=C(C(=CC=C1)Cl)NC(=O)C2=CN=C(S2)NC3=CC(=NC(=N3)C)N4CCN(CC4)CCO [Dasatinib] (first compound max 10 µM, 7x7, partner max 2 µM) | -0.0154 | 0.826 | 0.567 | 0.636 | 0.756 | 0.345 | 0.888 | 0.365 | 0.679 | 0.952 | 0.954 |
| CN(CCO)CC[C@H](CSc1ccccc1)Nc1ccc(S(=O)(=O)NC(=O)c2ccc(N3CCC([C@@H](O)c4ccccc4-c4ccc(Cl)cc4)CC3)cc2)cc1S(=O)(=O)C(F)(F)F [AZD4320] + CS(=O)(=O)CCNCc1ccc(-c2ccc3ncnc(Nc4ccc(OCc5cccc(F)c5)c(Cl)c4)c3c2)o1 [Lapatinib] (first compound max 1 µM, 7x7, partner max 10 µM) | 0.0333 | 0.92 | 0.41 | 0.846 | 0.466 | 0.362 | 0.204 | 0.874 | 0.633 | 0.974 | 0.926 |
| CS(=O)(=O)CCNCc1ccc(-c2ccc3ncnc(Nc4ccc(OCc5cccc(F)c5)c(Cl)c4)c3c2)o1 [Lapatinib] + NC1(c2ccc(-c3nc4ccn5c(=O)[nH]nc5c4cc3-c3ccccc3)cc2)CCC1 [MK-2206] (first compound max 10 µM, 7x7, partner max 10 µM) | 0.0118 | 0.698 | 0.602 | 0.792 | 0.676 | 0.516 | 0.926 | 0.658 | 0.583 | 0.971 | 0.963 |
| Cc1c2c(nn1C)CSCc1cc(n(C)n1)CSc1cc(c3ccccc3c1)OCCCc1c(C(=O)O)n(C)c3c-2c(Cl)ccc13 [AZD5991] + CC(=O)O[C@H]1C(=O)[C@@]2(C)[C@H]([C@H](OC(=O)c3ccccc3)[C@]3(O)C[C@H](OC(=O)[C@H](O)[C@@H](NC(=O)c4ccccc4)c4ccccc4)C(C)=C1C3(C)C)[C@]1(OC(C)=O)CO[C@@H]1C[C@@H]2O [Paclitaxel] (first compound max 1 µM, 7x7, partner max 3 µM) | 0.0289 | 0.519 | 0.847 | 0.931 | 0.604 | 0.831 | 1 | 0.807 | 0.864 | 0.963 | 1 |
